How the values were obtained:
Assay type in all cases: in vivo
Erodium cicuta = assay: post-emergence test, field trial (Examples 1-5); settings: 28 d, FT; pelargonic acid 5440 g/ha, flazasulfuron 50 g/ha; 8 L/ha
Procedure, shortened: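 Field or pot trial, post-emergence; spray liquors of pelargonic acid, flazasulfuron, and mixture. % damage scored; Colby expected value E from X (herbicide A, m g/ha) and Y (herbicide B, n g/ha).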

Amaranthus retroflexus = assay: post-emergence field trial under rows of vines, 150-200 L water/ha (Examples 6-9); settings: flazasulfuron 40 g/ha
Excerpt: (§1) The expected activity of a given combination of two or three herbicides can be calculated as follows according to a calculation method by Colby (cf. COLBY, S. R.: “Calculating synergistic and antagonistic responses of herbicide combinations”, • Weeds 15, pages 20-22, 1967): • If X=% damage by herbicide (A) at an application rate of m g/ha, • Y=% damage by herbicide (B) at an application rate of n g/ha, • E=the expected damage by herbicides (A) and (B) at application rates of m and n […] and, • then for a combination:
(§2) Individual compositions comprising pelargonic acid or flazasulfuron are compared with a herbicide composition according to the invention comprising pelargonic acid and flazasulfuron.
(§3) Herbicidal activity was determined by performing a post-emergence test. […] The corresponding mixture was in the form of a spray solution. Besides, spray solutions of individual compositions comprising pelargonic acid or flazasulfuron were used.
(§4) The spray solution was applied on plants of unwanted vegetation present on fields where perennial crops were grown.
(§5) After 5 to 88 days after application of the spray solution, the degree of damage to the unwanted vegetation is rated in % of plants of unwanted vegetation that were killed. Tests were performed on test fields (field trials).

Bromus oxyodon = assay: as above; settings: flazasulfuron 40 g/ha
Excerpt: as §1, §2, §3, §4, §5

Chenopodium album = assay: as above; settings: flazasulfuron 40 g/ha
Excerpt: as §1, §2, §3, §4, §5

Digitaria sanguinalis = assay: as above; settings: flazasulfuron 40 g/ha
Excerpt: as §1, §2, §3, §4, §5

Epilobium tetragonum = assay: as above; settings: flazasulfuron 40 g/ha
Excerpt: as §1, §2, §3, §4, §5

Erigeron sumatrensis = assay: as above; settings: flazasulfuron 40 g/ha
Excerpt: as §1, §2, §3, §4, §5

Geranium molle = assay: as above; settings: 15 d, flazasulfuron 40 g/ha
Excerpt: as §1, §2, §3, §4, §5

Oxalis latifolia = assay: as above; settings: flazasulfuron 40 g/ha
Excerpt: as §1, §2, §3, §4, §5

Sonchus oleracea = assay: as above; settings: flazasulfuron 40 g/ha
Excerpt: as §1, §2, §3, §4, §5

Stellaria media = assay: as above; settings: flazasulfuron 40 g/ha
Excerpt: as §1, §2, §3, §4, §5

[1] = 7 d, pelargonic acid 10880 g/ha
[2] = 14 d, pelargonic acid 5440 g/ha
[3] = 14 d, pelargonic acid 10880 g/ha
[4] = 31 d, pelargonic acid 5440 g/ha
[5] = 31 d, pelargonic acid 8160 g/ha
[6] = 31 d, pelargonic acid 10880 g/ha
[7] = 58 d, pelargonic acid 5440 g/ha
[8] = 58 d, pelargonic acid 6800 g/ha
[9] = 58 d, pelargonic acid 8160 g/ha
[10] = 58 d, pelargonic acid 10880 g/ha
[11] = 14 d, pelargonic acid 6800 g/ha
[12] = 14 d, pelargonic acid 8160 g/ha
[13] = 28 d, pelargonic acid 5440 g/ha
[14] = 28 d, pelargonic acid 6800 g/ha
[15] = 28 d, pelargonic acid 8160 g/ha
[16] = 28 d, pelargonic acid 10880 g/ha
[17] = 27 d, pelargonic acid 5440 g/ha
[18] = 27 d, pelargonic acid 6800 g/ha
[19] = 27 d, pelargonic acid 8160 g/ha
[20] = 27 d, pelargonic acid 10880 g/ha
[21] = 56 d, pelargonic acid 5440 g/ha
[22] = 56 d, pelargonic acid 6800 g/ha
[23] = 56 d, pelargonic acid 8160 g/ha
[24] = 56 d, pelargonic acid 10880 g/ha

CCCCCCCCC(=O)O [Pelargonic acid, nonanoic acid]
herbicidal effect (Erodium cicuta): 82.5% | herbicidal effect (Amaranthus retroflexus; 7 d, pelargonic acid 5440 g/ha): 53% | herbicidal effect (Amaranthus retroflexus; [1]): 86% | herbicidal effect (Amaranthus retroflexus; [2]): 53% | herbicidal effect (Amaranthus retroflexus; [3]): 86% | herbicidal effect (Amaranthus retroflexus; [4]): 48% | herbicidal effect (Amaranthus retroflexus; 31 d, pelargonic acid 6800 g/ha): 50% | herbicidal effect (Amaranthus retroflexus; [5]): 70% | herbicidal effect (Amaranthus retroflexus; [6]): 75% | herbicidal effect (Amaranthus retroflexus; [7]): 18% | herbicidal effect (Amaranthus retroflexus; [8]): 30% | herbicidal effect (Amaranthus retroflexus; [9]): 48% | herbicidal effect (Amaranthus retroflexus; [10]): 63% | herbicidal effect (Bromus oxyodon; 7 d, pelargonic acid 5440 g/ha): 10% | herbicidal effect (Bromus oxyodon; 7 d, pelargonic acid 6800 g/ha): 11% | herbicidal effect (Bromus oxyodon; 7 d, pelargonic acid 8160 g/ha): 15% | herbicidal effect (Bromus oxyodon; [1]): 18% | herbicidal effect (Bromus oxyodon; [2]): 11% | herbicidal effect (Bromus oxyodon; [11]): 16% | herbicidal effect (Bromus oxyodon; [12]): 20% | herbicidal effect (Bromus oxyodon; [3]): 23% | herbicidal effect (Bromus oxyodon; [13]): 8% | herbicidal effect (Bromus oxyodon; [14]): 11% | herbicidal effect (Bromus oxyodon; [15]): 16% | herbicidal effect (Bromus oxyodon; [16]): 18% | herbicidal effect (Chenopodium album; 7 d, pelargonic acid 5440 g/ha): 60% | herbicidal effect (Chenopodium album; [1]): 91% | herbicidal effect (Chenopodium album; [2]): 60% | herbicidal effect (Chenopodium album; [3]): 91% | herbicidal effect (Chenopodium album; [4]): 45% | herbicidal effect (Chenopodium album; [5]): 74% | herbicidal effect (Chenopodium album; [6]): 78% | herbicidal effect (Chenopodium album; [7]): 23% | herbicidal effect (Chenopodium album; [8]): 35% | herbicidal effect (Chenopodium album; [9]): 65% | herbicidal effect (Chenopodium album; [10]): 65% | herbicidal effect (Digitaria sanguinalis; 7 d, pelargonic acid 5440 g/ha): 35% | herbicidal effect (Digitaria sanguinalis; 7 d, pelargonic acid 6800 g/ha): 63% | herbicidal effect (Digitaria sanguinalis; 7 d, pelargonic acid 8160 g/ha): 48% | herbicidal effect (Digitaria sanguinalis; [1]): 54% | herbicidal effect (Digitaria sanguinalis; [2]): 10% | herbicidal effect (Digitaria sanguinalis; [11]): 58% | herbicidal effect (Digitaria sanguinalis; [12]): 43% | herbicidal effect (Digitaria sanguinalis; [3]): 49% | herbicidal effect (Digitaria sanguinalis; [17]): 10% | herbicidal effect (Digitaria sanguinalis; [18]): 20% | herbicidal effect (Digitaria sanguinalis; [19]): 26% | herbicidal effect (Digitaria sanguinalis; [20]): 5% | herbicidal effect (Digitaria sanguinalis; [21]): 0% | herbicidal effect (Digitaria sanguinalis; [22]): 8% | herbicidal effect (Digitaria sanguinalis; [23]): 0% | herbicidal effect (Digitaria sanguinalis; [24]): 0% | herbicidal effect (Epilobium tetragonum; 7 d, pelargonic acid 5440 g/ha): 49% | herbicidal effect (Epilobium tetragonum; 7 d, pelargonic acid 8160 g/ha): 56% | herbicidal effect (Epilobium tetragonum; [1]): 73% | herbicidal effect (Epilobium tetragonum; [11]): 0% | herbicidal effect (Epilobium tetragonum; [12]): 8% | herbicidal effect (Epilobium tetragonum; [3]): 13% | herbicidal effect (Epilobium tetragonum; [18]): 0% | herbicidal effect (Epilobium tetragonum; [19]): 0% | herbicidal effect (Epilobium tetragonum; [20]): 0% | herbicidal effect (Epilobium tetragonum; [22]): 0% | herbicidal effect (Epilobium tetragonum; [23]): 0% | herbicidal effect (Epilobium tetragonum; [24]): 0% | herbicidal effect (Erigeron sumatrensis; 5 d, pelargonic acid 5440 g/ha): 55% | herbicidal effect (Erigeron sumatrensis; 5 d, pelargonic acid 8160 g/ha): 83% | herbicidal effect (Erigeron sumatrensis; 15 d, pelargonic acid 5440 g/ha): 35% | herbicidal effect (Erigeron sumatrensis; 15 d, pelargonic acid 6800 g/ha): 50% | herbicidal effect (Erigeron sumatrensis; 15 d, pelargonic acid 8160 g/ha): 61% | herbicidal effect (Geranium molle; pelargonic acid 5440 g/ha): 0% | herbicidal effect (Geranium molle; pelargonic acid 6800 g/ha): 3% | herbicidal effect (Geranium molle; pelargonic acid 8160 g/ha): 0% | herbicidal effect (Geranium molle; pelargonic acid 10880 g/ha): 0% | herbicidal effect (Oxalis latifolia; 7 d, pelargonic acid 6800 g/ha): 54% | herbicidal effect (Oxalis latifolia; 7 d, pelargonic acid 8160 g/ha): 58% | herbicidal effect (Oxalis latifolia; [1]): 73% | herbicidal effect (Oxalis latifolia; [2]): 76% | herbicidal effect (Oxalis latifolia; [11]): 85% | herbicidal effect (Oxalis latifolia; [12]): 89% | herbicidal effect (Oxalis latifolia; [3]): 96% | herbicidal effect (Oxalis latifolia; [14]): 68% | herbicidal effect (Sonchus oleracea; [2]): 25% | herbicidal effect (Sonchus oleracea; [11]): 45% | herbicidal effect (Sonchus oleracea; [12]): 25% | herbicidal effect (Sonchus oleracea; [3]): 28% | herbicidal effect (Sonchus oleracea; [17]): 0% | herbicidal effect (Sonchus oleracea; [18]): 13% | herbicidal effect (Sonchus oleracea; [19]): 0% | herbicidal effect (Sonchus oleracea; [20]): 0% | herbicidal effect (Sonchus oleracea; [21]): 0% | herbicidal effect (Sonchus oleracea; [22]): 0% | herbicidal effect (Sonchus oleracea; [23]): 0% | herbicidal effect (Sonchus oleracea; [24]): 0% | herbicidal effect (Stellaria media; 7 d, pelargonic acid 8160 g/ha): 49% | herbicidal effect (Stellaria media; [1]): 54% | herbicidal effect (Stellaria media; [2]): 69% | herbicidal effect (Stellaria media; [11]): 75% | herbicidal effect (Stellaria media; [12]): 66% | herbicidal effect (Stellaria media; [3]): 80% | herbicidal effect (Stellaria media; [13]): 80% | herbicidal effect (Stellaria media; [14]): 84% | herbicidal effect (Stellaria media; [15]): 86% | herbicidal effect (Stellaria media; [16]): 93%
